We go through two molecules from paper PMC7450057, “Enhancing intracellular accumulation and target engagement of PROTACs with reversible covalent chemistry” (Nature Communications, 2020).

Each structure is given as a SMILES string. pIC50, pKd: −log10 of the molar value. Where “and” joins values, the source holds several entries; their conditions need not be identical. Equal values may be shown once.

In one series the target is T1, full-length BTK protein (Homo sapiens, UniProt Q06187).
T1 construct: Kd was measured using the full-length BTK protein by Eurofins DiscoverX; T7 phage fusion or DNA tag for qPCR (generic vendor protocol); purchased Eurofins DiscoverX
T1 sequence (Q06187 whole entry, the tested form may be a part): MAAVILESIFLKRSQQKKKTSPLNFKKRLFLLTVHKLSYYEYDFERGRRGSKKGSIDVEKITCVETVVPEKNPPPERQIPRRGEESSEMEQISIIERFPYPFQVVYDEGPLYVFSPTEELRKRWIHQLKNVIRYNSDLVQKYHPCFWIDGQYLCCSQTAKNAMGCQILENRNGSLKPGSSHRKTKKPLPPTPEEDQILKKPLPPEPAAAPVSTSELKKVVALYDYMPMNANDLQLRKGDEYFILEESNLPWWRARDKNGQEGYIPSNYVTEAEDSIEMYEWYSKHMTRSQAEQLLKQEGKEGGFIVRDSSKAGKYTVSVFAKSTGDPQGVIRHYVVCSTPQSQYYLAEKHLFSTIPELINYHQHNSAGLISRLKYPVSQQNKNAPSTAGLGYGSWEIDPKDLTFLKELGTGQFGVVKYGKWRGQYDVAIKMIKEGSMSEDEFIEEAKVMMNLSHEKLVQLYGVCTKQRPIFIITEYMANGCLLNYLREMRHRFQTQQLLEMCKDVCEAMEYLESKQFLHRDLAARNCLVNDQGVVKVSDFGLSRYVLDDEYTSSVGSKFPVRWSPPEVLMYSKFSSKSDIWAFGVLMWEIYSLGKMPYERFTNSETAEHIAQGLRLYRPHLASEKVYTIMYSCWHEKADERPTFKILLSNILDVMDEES
Briefly: BTK binding assay (Kd, Eurofins DiscoverX). How it is done:
The dissociation equilibrium constant Kd was measured using the full-length BTK protein by Eurofins DiscoverX according to the following protocol: kinase-tagged T7 phage strains were prepared in an E. coli host derived from the BL21 strain. E. coli were grown to log-phase and infected with T7 phage and incubated with shaking at 32 °C until lysis. The lysates were centrifuged and filtered to remove cell debris. The remaining kinases were produced in HEK-293 cells and subsequently tagged with DNA for qPCR detection. […] The liganded beads were blocked with excess biotin and washed with blocking buffer (SeaBlock (Pierce), 1% BSA, 0.05% Tween 20, 1 mM DTT) to remove unbound ligand and to reduce non-specific binding. […] Test compounds were prepared as 111X stocks in 100% DMSO. […] The compounds were then diluted directly into the assays such that the final concentration of DMSO was 0.9%. All reactions performed in polypropylene 384-well plate. Each was a final volume of 0.02 mL. […] The kinase concentration in the eluates was measured by qPCR. For kinase-binding constant determination, an 11-point 3-fold serial dilution of each test compound was prepared in 100% DMSO at 100x final test concentration and subsequently diluted to 1x in the assay (final DMSO concentration = 1%). […] Binding constants (Kd values) were calculated with a standard dose-response curve using the Hill equation: Response=Background+Signal−Background/1+KdHillSlope/Dose^HillSlope
The Hill Slope was set to −1. Curves were fitted using a non-linear least square fit with the Levenberg-Marquardt algorithm.

Another series has as its system Maver-1. The series is described as follows: IC50 in MCL cell lines (Supplementary Table 2), Maver-1. The following applies: for pIC50: Maver-1, triplicates; for Cell Viability (%): Maver-1 cells, replicate wells.
In another series the target is BTK (Homo sapiens, UniProt Q06187). The series is described as follows: BTK degradation in MOLM-14 cells (western blot). In kind it is cell-based. The following applies: for Quantification anti-BTK / anti-β-actin (BTK level vs DMSO): Figure 2d, DMSO = 100 (mean); for BTK degradation (in words): MOLM-14 cells, 200 nM, 24 h (Fig. 2d). The arrangement: endogenous in cells; host or cells: MOLM-14.
Sequence of BTK (Q06187 whole entry): as the sequence (Q06187 whole entry, the tested form may be a part) above

As to `CC(C)(C)C=C(C#N)C(=O)N1CCCC(n2nc(-c3ccc(Oc4ccccc4)cc3)c3c(N)ncnc32)C1` (stereo not shown) [RC-Ctrl], the Signal at full-length BTK protein (BTK_+DTT, compound concentration 0.00491 nM) is 2.09E-05 and 2.12E-05; at full-length BTK protein (BTK_+DTT, compound concentration 0.0147 nM), 2.23E-05 and 2.05E-05; at full-length BTK protein (BTK_+DTT, compound concentration 0.0442 nM), 2.23E-05 and 2.20E-05; on full-length BTK protein (BTK_+DTT, compound concentration 0.133 nM) it was 2.05E-05; at full-length BTK protein (BTK_+DTT, compound concentration 0.398 nM), 2.13E-05 and 2.22E-05; at full-length BTK protein (BTK_+DTT, compound concentration 1.19 nM) it was 1.80E-05 and 1.97E-05. Further, the Signal on full-length BTK protein (BTK_+DTT, compound concentration 3.58 nM) was 1.78E-05 and 1.71E-05; on full-length BTK protein (BTK_+DTT, compound concentration 10.7 nM), 1.50E-05 and 1.39E-05; at full-length BTK protein (BTK_+DTT, compound concentration 32.2 nM), 7.62E-06 and 7.96E-06; on full-length BTK protein (BTK_+DTT, compound concentration 96.7 nM), 2.20E-06 and 2.08E-06; at full-length BTK protein (BTK_+DTT, compound concentration 290 nM), 4.82E-07 and 5.26E-07; at full-length BTK protein (BTK_-DTT, compound concentration 0.0152 nM), 1.69E-05 and 1.12E-05. Further, the Signal is 1.66E-05 and 1.75E-05 on full-length BTK protein (BTK_-DTT, compound concentration 0.0457 nM); 1.87E-05 and 1.52E-05 at full-length BTK protein (BTK_-DTT, compound concentration 0.137 nM); 1.34E-05 and 1.41E-05 at full-length BTK protein (BTK_-DTT, compound concentration 0.412 nM); 1.48E-05 and 1.35E-05 on full-length BTK protein (BTK_-DTT, compound concentration 1.23 nM); 1.31E-05 and 1.42E-05 on full-length BTK protein (BTK_-DTT, compound concentration 3.7 nM); 6.46E-06 and 6.66E-06 at full-length BTK protein (BTK_-DTT, compound concentration 11.1 nM). For the same molecule, the Signal is 2.78E-06 and 2.85E-06 on full-length BTK protein (BTK_-DTT, compound concentration 33.3 nM); 8.37E-07 and 7.44E-07 at full-length BTK protein (BTK_-DTT, compound concentration 100 nM); 2.56E-07 and 2.49E-07 on full-length BTK protein (BTK_-DTT, compound concentration 300 nM). This molecule also had a pKd on full-length BTK protein (full-length BTK, absence of DTT in the buffer, duplicates) of 8.04. For the same molecule, the pIC50 in the series with Maver-1 was less than 5.30. Moreover, the “Cell Viability (%)” value in the series with Maver-1 (1.25E-06 M) was 92.5899% and 86.5612% and 87.595%; with Maver-1 (1.56E-07 M), 103.384% and 106.186% and 101.772%; in the series on Maver-1 (2.50E-06 M), 81.7599% and 80.9854% and 82.1702%; in the series with Maver-1 (3.13E-07 M) it was 99.5605% and 94.4048% and 98.8352%; in the series with Maver-1 (5.00E-06 M), 60.4937% and 62.4464% and 56.8706%; with Maver-1 (6.25E-07 M) it was 97.5323% and 94.4409% and 89.8332%. Also, the “Cell Viability (%)” value in the series on Maver-1 (7.81E-08 M) was 103.555% and 102.055% and 101.769%. Also, on BTK, the “Quantification anti-BTK / anti-β-actin (BTK level vs DMSO)” value is reported as 83.2734. The “BTK degradation (in words)” value at BTK is given as “Neither RC-Ctrl, nor pomalidomide, nor a combination of both caused BTK degradation”; at BTK (listed as RC-1 warhead), “neither the RC-1 warhead, nor pomalidomide, nor a combination of both caused BTK degradation”.

For the molecule `CN1C(=O)CCC(N2C(=O)c3cccc(NCC(=O)NCCCN(C)C(C)(C)C=C(C#N)C(=O)N4CCCC(n5nc(-c6ccc(Oc7ccccc7)cc6)c6c(N)ncnc65)C4)c3C2=O)C1=O` (stereo not shown) [RC-1-Me], the pIC50 in the series with Maver-1 is 5.38. In addition, the “Cell Viability (%)” value in the series with Maver-1 (1.25E-06 M) is 75.2061% and 69.0199% and 79.2231%; in the series on Maver-1 (1.56E-07 M), 95.5665% and 93.8239% and 93.1905%; in the series with Maver-1 (2.50E-06 M) it was 67.4512% and 61.3175% and 56.7459%; with Maver-1 (3.13E-07 M) it was 94.477% and 92.288% and 91.2083%; in the series on Maver-1 (5.00E-06 M), 42.5652% and 49.5981% and 48.479%; in the series on Maver-1 (6.25E-07 M), 91.2247% and 87.9954% and 86.7647%. Further, in the series on Maver-1 (7.81E-08 M), the “Cell Viability (%)” value is 97.0795% and 100.847% and 94.9725%. The “Quantification anti-BTK / anti-β-actin (BTK level vs DMSO)” value at BTK came to 91.1107. Besides, the “BTK degradation (in words)” value at BTK is listed as “cannot degrade BTK in cells”.
